Earlier results as cited in article PMC7536072, “Molecular and functional characterization of somatostatin-type signalling in a deuterostome invertebrate” (Open Biology, 2020).
Bridges are numbered along the chain shown (N, C = ends). Where no end group is shown, it is not given here.

Experiments:
mammals = settings: intracerebroventricular, cited from earlier work
Description: (§1) Subsequently, an N-terminally extended isoform (SS28) was identified, with both SS14 and SS28 being derived from the same precursor protein [5]. Five G-protein-coupled receptors, SSTR1, SSTR2, SSTR3, SSTR4 and SSTR5, mediate effect ...

growth hormone release = settings: ref [1]; cited from earlier work
Description: as §1

insulin release = settings: ref [2]; cited from earlier work
Description: as §1

SS: tetradecapeptide with a disulfide bridge linking cysteine residues at positions 3 and 14 (SS14) (AGCKNFFWKTFTSC; disulfide 3-14; UniProt P61278 103-116, looked up)
effect on food intake and drinking (mammals; ref [12],[13]): stimulation of food intake and drinking
anxiolytic effect (mammals; ref [14]): anxiolysis
effect on growth hormone release (growth hormone release): inhibits growth hormone release
effect on insulin release (insulin release): inhibits insulin release
